Test results: patent US20030104089A1, “Minari extract for preventing the induction and metastasis of cancer by carcinogens contained in cigarette smoke, fermented foods or alcoholic drinks” (priority 2000, published 2003)

Key:
[1] = test system: PCNA (proliferative cell nuclear antigen); assay: PCNA expression in lung tissue of NNK-treated A/J mice; type: in vivo; conditions: single i.p. NNK 4 mg, normal feed, 4 months, compared to water-only-receiving group
Protocol: The NNK group received a single administration of 4 mg of NNK. The group receiving NNK-Minari received a single administration of NNK and thereafter a feed to which Minari extract was added at a 1.25% (w/w) concentration. The other group received a normal feed. All the groups were allowed take, ad lib., their feeds for 4 months.
A/J mice were divided into three experimental groups: a single intraperitoneal water administration-receiving (+normal feed) group; a single intraperitoneal NNK (4 mg) administration-receiving (+normal feed) group; and a single intraperitoneal NNK administration-receiving (+feed to which Minari extract is added at a concentration of 1.25%) group. Four months later, the expression level of PCNA in each experimental group was measured.

[2] = humans, calculated; cited from earlier work

Q: With `CN(CCCC(=O)c1cccnc1)N=O` [NNK, {(4-N-methyl-N-nitrosoamino)-1-(3-pyridyl)-1-butanone}] as the compound, how does the “expression level of PCNA” value [1] read?
A: significantly increased

Q: With `CCOC(N)=O` [urethane, ethylcarbamate] as the compound, how does the “virtually safe dose (VSD) for liver cancer” value [2] read?
A: 7.2×10^−5 mg/kg body weight

Q: And the “virtually safe dose (VSD) for lung cancer” value [2]?
A: 1.8×10^−4 mg/kg body weight
